Experiment: xn = mol fraction of the nth substance listed
Conditions: Liquid, Vibrating tube method

CCC(C)Cl (stereo unspecified) [2-chlorobutane] + CCCCCCC
mass density [kg/m3]
Conditions	303.15 K	313.15 K
100 kPa, x2 = 0.0524	847.91	836.56
100 kPa, x2 = 0.1018	835.49	824.33
100 kPa, x2 = 0.1968	813.06	802.22
100 kPa, x2 = 0.3006	790.36	779.88
100 kPa, x2 = 0.4029	769.73	759.54
100 kPa, x2 = 0.5017	751.19	741.34
100 kPa, x2 = 0.6008	733.91	724.36
100 kPa, x2 = 0.7023	717.52	708.18
100 kPa, x2 = 0.7977	703.14	694.03
100 kPa, x2 = 0.8986	688.99	680.16
100 kPa, x2 = 0.952	681.86	673.13
2000 kPa, x2 = 0.0524	850.2	839.05
2000 kPa, x2 = 0.1018	837.83	826.85
2000 kPa, x2 = 0.1968	815.38	804.68
2000 kPa, x2 = 0.3006	792.62	782.33
2000 kPa, x2 = 0.4029	771.9	761.96
2000 kPa, x2 = 0.5017	753.34	743.67
2000 kPa, x2 = 0.6008	736.05	726.67
2000 kPa, x2 = 0.7023	719.64	710.46
2000 kPa, x2 = 0.7977	705.19	696.31
2000 kPa, x2 = 0.8986	691.08	682.39
2000 kPa, x2 = 0.952	683.95	675.34
5000 kPa, x2 = 0.0524	853.75	842.87
5000 kPa, x2 = 0.1018	841.34	830.59
5000 kPa, x2 = 0.1968	818.82	808.31
5000 kPa, x2 = 0.3006	795.97	785.99
5000 kPa, x2 = 0.4029	775.25	765.53
5000 kPa, x2 = 0.5017	756.66	747.19
5000 kPa, x2 = 0.6008	739.33	730.09
5000 kPa, x2 = 0.7023	722.77	713.8
5000 kPa, x2 = 0.7977	708.3	699.58
5000 kPa, x2 = 0.8986	694.14	685.57
5000 kPa, x2 = 0.952	686.97	678.46
7000 kPa, x2 = 0.0524	856.02	845.3
7000 kPa, x2 = 0.1018	843.56	832.97
7000 kPa, x2 = 0.1968	820.99	810.78
7000 kPa, x2 = 0.3006	798.15	788.3
7000 kPa, x2 = 0.4029	777.41	767.84
7000 kPa, x2 = 0.5017	758.81	749.48
7000 kPa, x2 = 0.6008	741.44	732.35
7000 kPa, x2 = 0.7023	724.78	716.03
7000 kPa, x2 = 0.7977	710.27	701.8
7000 kPa, x2 = 0.8986	696.07	687.74
7000 kPa, x2 = 0.952	688.88	680.62
10000 kPa, x2 = 0.0524	859.35	848.77
10000 kPa, x2 = 0.1018	846.8	836.51
10000 kPa, x2 = 0.1968	824.17	814.23
10000 kPa, x2 = 0.3006	801.36	791.7
10000 kPa, x2 = 0.4029	780.55	771.16
10000 kPa, x2 = 0.5017	761.91	752.73
10000 kPa, x2 = 0.6008	744.48	735.56
10000 kPa, x2 = 0.7023	727.81	719.19
10000 kPa, x2 = 0.7977	713.22	704.84
10000 kPa, x2 = 0.8986	699	690.69
10000 kPa, x2 = 0.952	691.77	683.56
20000 kPa, x2 = 0.0524	869.52	859.69
20000 kPa, x2 = 0.1018	857	847.28
20000 kPa, x2 = 0.1968	834.1	824.81
20000 kPa, x2 = 0.3006	811.1	802.08
20000 kPa, x2 = 0.4029	790.07	781.34
20000 kPa, x2 = 0.5017	771.19	–
20000 kPa, x2 = 0.6008	753.6	–
20000 kPa, x2 = 0.7023	736.87	–
20000 kPa, x2 = 0.7977	722.07	–
20000 kPa, x2 = 0.8986	707.69	–
20000 kPa, x2 = 0.952	700.38	–
30000 kPa, x2 = 0.0524	878.79	–
30000 kPa, x2 = 0.1018	866.11	–
30000 kPa, x2 = 0.1968	843.05	–
30000 kPa, x2 = 0.3006	819.96	–
30000 kPa, x2 = 0.4029	798.75	–
30000 kPa, x2 = 0.5017	779.74	–
30000 kPa, x2 = 0.6008	761.98	–
30000 kPa, x2 = 0.7023	745.03	–
30000 kPa, x2 = 0.7977	730.14	–
30000 kPa, x2 = 0.8986	715.59	–
30000 kPa, x2 = 0.952	708.22	–
40000 kPa, x2 = 0.0524	887.22	–
40000 kPa, x2 = 0.1018	874.41	–
40000 kPa, x2 = 0.1968	851.38	–
40000 kPa, x2 = 0.3006	827.93	–
40000 kPa, x2 = 0.4029	806.62	–
40000 kPa, x2 = 0.5017	787.49	–
40000 kPa, x2 = 0.6008	769.55	–
40000 kPa, x2 = 0.7023	752.43	–
40000 kPa, x2 = 0.7977	737.42	–
40000 kPa, x2 = 0.8986	722.69	–
40000 kPa, x2 = 0.952	715.28	–
50000 kPa, x2 = 0.0524	894.96	–
50000 kPa, x2 = 0.1018	882.16	–
50000 kPa, x2 = 0.1968	858.96	–
50000 kPa, x2 = 0.3006	835.46	–
50000 kPa, x2 = 0.4029	813.98	–
50000 kPa, x2 = 0.5017	794.72	–
50000 kPa, x2 = 0.6008	776.69	–
50000 kPa, x2 = 0.7023	759.44	–
50000 kPa, x2 = 0.7977	744.29	–
50000 kPa, x2 = 0.8986	729.42	–
50000 kPa, x2 = 0.952	721.96	–
60000 kPa, x2 = 0.0524	902.31	–
60000 kPa, x2 = 0.1018	889.34	–
60000 kPa, x2 = 0.1968	866.09	–
60000 kPa, x2 = 0.3006	842.43	–
60000 kPa, x2 = 0.4029	820.82	–
60000 kPa, x2 = 0.5017	801.47	–
60000 kPa, x2 = 0.6008	783.34	–
60000 kPa, x2 = 0.7023	766	–
60000 kPa, x2 = 0.7977	750.71	–
60000 kPa, x2 = 0.8986	735.66	–
60000 kPa, x2 = 0.952	728.17	–
65000 kPa, x2 = 0.0524	905.77	–
65000 kPa, x2 = 0.1018	892.87	–
65000 kPa, x2 = 0.1968	869.57	–
65000 kPa, x2 = 0.3006	845.82	–
65000 kPa, x2 = 0.4029	824.21	–
65000 kPa, x2 = 0.5017	804.75	–
65000 kPa, x2 = 0.6008	786.56	–
65000 kPa, x2 = 0.7023	769.12	–
65000 kPa, x2 = 0.7977	753.9	–
65000 kPa, x2 = 0.8986	738.65	–
65000 kPa, x2 = 0.952	731.1	–

Reference: the NIST ThermoML archive (doi:10.1016/j.tca.2015.06.017)
